In one experiment the target is T1, ERK1 (Homo sapiens, UniProt P27361).
T1 construct: purchased Invitrogen PR5254B
Nature of the experiment: ERK1 kinase assay (TR-FRET). It is filed as biochemical. As to conditions: Abs_IC50, ATP 10 μM; ±0.608, n=16. On the procedure: The purpose of this assay is to measure the ability of compounds to inhibit ERK1 kinase activity. Perform the ERK1 kinase assay in vitro using a TR-FRET assay. […] Incubate the reaction mixture at room temperature for 60 minutes. Stop the reaction by addition of 12.5 μL of stop buffer (10 mM EDTA, 2 nM Tb-anti-pATF2 (pThr71) antibody, Invitrogen, #PV4448) in TR-FRET dilution buffer (Invitrogen, # PV3574). Incubate the plates at room temperature for an additional 60 minutes and read on an ENVISION® (PerkinElmer) plate reader at the excitation wavelength 340 nm. Calculate the TR-FRET ratio by dividing the GFP acceptor emission signal (at 520 nm) by the Tb donor emission signal (at 495 nm). Calculate percent inhibition using compound treated wells relative to on-plate Max (DMSO control) and Min (No enzyme added) control wells TR-FRET ratio data {% inhibition=100−[(test compound−median Min)/(median Max−median Min)×100]}). Test all compounds at 10 concentrations (20 μM to 0.001 μM) using a 1:3 dilution scheme. Derive Abs_IC50 values by fitting percent inhibition and ten-point concentration data to a 4-parameter nonlinear logistic equation (equation 205) using ACTIVITYBASE® 7.3 (ID Business Solutions Limited).
(In TR-FRET formats the signal depends on donor and acceptor labels being close together.)

Experiment [1] deals with RSK1 phosphorylation in HCT116 tumor xenograft. Briefly: In vivo target inhibition (IVTI) assay (pRSK1 ELISA), HCT116 xenograft. On the set-up: species or system female athymic nude mice. As to conditions: oral. On the procedure:
The purpose of this assay is to measure the ability of a test compound to inhibit ERK1/2 substrate phosphorylation in an animal model. Implant female athymic nude mice (22-25 g) from Harlan Laboratories with 5×10e^6 HCT116 colorectal cancer cells (ATCC, # CCL-247) subcutaneously in the right flank region in 200 μL of 1:1 Hank's Balanced Salt Solution (HBSS)+Matrigel solution. Measure tumor growth and body weight twice per week beginning the seventh day after the implantation. When tumor sizes reach 300-500 mm^3, randomize animals and group into groups of five animals. […]
Pulverize tumors in liquid nitrogen and lyse in 1× lysis buffer (MSD, #R60TX-3) containing 1× halt protease & phosphatase inhibitor cocktail (Thermo Scientific, #0861281), 1 mM phenylmethanesulfonyl fluoride (PMSF) (Sigma, #93482-50ML-F) and 1 μM sodium metavanadate (Sigma, #590088) using Matrix D beads (MP Biomedical, #6913-500) in a FastPrep-24™ Cell Disrupter machine (MP Biomedical) in a cold room (4° C.). […] Cool plate to room temperature and measure the absorbance at or near 562 nm on a plate reader (Envision plate reader from Perkin Elmer). Subtract the average 562 nm absorbance measurement of the blank standard replicates from the 562 nm measurements of all other individual standard and unknown (cell or tumor lysate) sample replicates. […]

What is called IC50 is the concentration needed to halve the response being measured.

T1 sequence (P27361 whole entry): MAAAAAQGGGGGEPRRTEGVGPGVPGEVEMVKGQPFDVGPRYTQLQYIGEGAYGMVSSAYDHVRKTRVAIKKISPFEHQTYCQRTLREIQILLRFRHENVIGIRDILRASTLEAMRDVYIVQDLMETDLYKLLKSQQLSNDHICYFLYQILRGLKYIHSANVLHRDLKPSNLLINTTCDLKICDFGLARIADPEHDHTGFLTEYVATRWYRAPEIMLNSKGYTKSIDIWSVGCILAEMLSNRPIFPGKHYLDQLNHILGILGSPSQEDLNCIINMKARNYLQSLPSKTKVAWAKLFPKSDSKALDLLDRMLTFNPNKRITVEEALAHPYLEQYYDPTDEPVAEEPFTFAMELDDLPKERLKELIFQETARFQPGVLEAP

`COCCN1C(=O)c2cc(-c3ccnc(Nc4ccnn4C)c3)sc2C1(C)C` [Example 1, 5-(2-Methoxyethyl)-6,6-dimethyl-2-{2-[(1-methyl-1H-pyrazol-5-yl)amino]pyridin-4-yl}-5,6-dihydro-4H-thieno[2,3-c]pyrrol-4-one] displayed a 50% inhibitory concentration (IC50) on ERK1 of 1.5 nM. For the same compound, the “TED50 (pRSK1 inhibition in tumor)” value in experiment [1] was 12 mg/kg.

Values taken from patent US9879029B2, “ERK inhibitors” (Eli Lilly and Company, priority 2014, dated 2018).
